In publication PMC6934184, “Selective DNA-PKcs inhibition extends the therapeutic index of localized radiotherapy and chemotherapy” (The Journal of Clinical Investigation, 2019):

Test system: NHEJ-mediated DSB repair in HEK293T cells
Test: NHEJ plasmid repair assay
Format: cell-based, Human
Conditions: 1 μM; 24 hours; AfeI or ScaI linearized plasmid
Protocol: The ability of NU5455 to impair the nonhomologous end joining (NHEJ) ability of cells was assessed using a modified version of a DNA repair assay developed by Nagel et al. ([52]), which measures the repair of a plasmid encoding blue fluorescent protein (BFP) and GFP linearized by either an ScaI or an AfeI restriction digestion. Full experimental details are given in Supplemental Methods.
Membranes were then washed in TBST and incubated with HRP-conjugated goat anti-mouse or anti-rabbit antibodies (P0447 and P0448 respectively, Dako) in 5% (w/v) milk/TBST at room temperature for 1-2 hours. Conjugates were detected using Clarity Western ECL Substrate (BioRad) and chemiluminescence imaged using the Fuji LAS-3000 Luminescent Image Analyzer System (Fujifilm).
Densitometry analysis was performed using AIDA Image Analyzer software (Raytest). The intensity of all bands was determined following a background subtraction, and the level of pDNA-PKcs stimulation determined by subtracting basal unstimulated pDNA-PKcs Ser2056 levels. pDNA-PKcs Ser2056 band intensity was calculated relative to total DNA-PKcs band intensity, and is given as percentage expression relative to irradiated, DMSO-treated cells. […]
violet laser with 440/50 emission filter to detect blue fluorescence using the VL1 channel. […]
Data were analyzed by FCS Express 6 Flow Research Edition (De Novo Software). […]

CN(C(=O)CN1CCOCC1)c1ccc2sc3c(-c4cccc5c(=O)cc(N6CC7CCC(C6)O7)oc45)cccc3c2c1 [NU5455]
repair of DNA-DSBs (NHEJ plasmid repair): inhibit the repair of DNA-DSBs
